# Test results published in US20240150338A1, “COMPOUNDS AND USE THEREOF FOR TREATMENT OF NEURODEGENERATIVE, DEGENERATIVE AND METABOLIC DISORDERS” (University of Florida Research Foundation, Incorporated, priority 2021, published 2024).
# Experiments:
# [1] = Microsomal stability assay; assay type: in vitro ADME; conditions: 1 mg/ml human hepatic microsomes, 37° C., half-life by LC-MS/MS; yes = stability ≥15 minutes
# Protocol: The metabolic stability of some test compounds was determined in hepatic human and mouse microsomes. The compound was incubated with 1 mg/ml human or mouse hepatic microsomes at 37° C. with continuous shaking. Aliquots were removed at various time points between 5 minutes and 2 hours and acetonitrile was added to quench the reactions and precipitate the proteins. Samples were then centrifuged through 0.45 μm filter plates and half-lives were determined by LC-MS/MS.
# [2] = system: PK1 neuroblastoma cells exposed to TPrP; assay: cells; assay type: cell-based; conditions: Neuroblastoma cell, 96 h, read-out: TPrP EC50
structure (smiles),measurement,setting,value
"COc1cc(-c2nc(Nc3ccc(S(C)(=O)=O)c(Cl)c3)sc2CO)cc(OC)n1 [SR-33800, (2-((3-Chloro-4-(methylsulfonyl)phenyl)amino)-4-(2,6-dimethoxypyridin-4-yl)thiazol-5-yl)methanol]",Stabilty in human microsomes ≥ 15 minutes,[1],yes
same,EC50,[2],55 nM
"COc1cc(-c2csc(Nc3ccc(S(N)(=O)=O)cc3)n2)cc(OC)n1 [SR-33790, 4-((4-(2,6-Dimethoxypyridin-4-yl)thiazol-2-yl)amino)benzenesulfonamide]",Stabilty in human microsomes ≥ 15 minutes,[1],yes
same,EC50,[2],35 nM
"Cc1cc(-c2csc(Nc3ccc(S(N)(=O)=O)cc3)n2)cc(C)n1 [SR-33791, 4-((4-(2,6-Dimethylpyridin-4-yl)thiazol-2-yl)amino)benzenesulfonamide]",Stabilty in human microsomes ≥ 15 minutes,[1],yes
same,EC50,[2],25 nM
"Cc1cc(-c2csc(Nc3ccc(S(C)(=O)=O)cc3)n2)cc(C)n1 [SR-33786, 4-(2,6-Dimethylpyridin-4-yl)-N-(4-(methylsulfonyl)phenyl)thiazol-2-amine]",Stabilty in human microsomes ≥ 15 minutes,[1],yes
same,EC50,[2],20 nM
"Cc1cc(-c2nc(Nc3ccc(S(C)(=O)=O)cc3)sc2CO)ccn1 [SR-33799, (4-(2-Methylpyridin-4-yl)-2-((4-(methylsulfonyl)phenyl)amino)thiazol-5-yl)methanol]",Stabilty in human microsomes ≥ 15 minutes,[1],yes
same,EC50,[2],60 nM
"Cc1cc(-c2csc(Nc3ccc(S(C)(=O)=O)c(C(F)(F)F)c3)n2)cc(C)n1 [SR-34984, 4-(2,6-Dimethylpyridin-4-yl)-N-(4-(methylsulfonyl)-3-(trifluoromethyl)phenyl)thiazol-2-amine]",Stabilty in human microsomes ≥ 15 minutes,[1],yes
same,EC50,[2],60 nM
"O=S(=O)(O)c1ccc(Nc2nc(-c3ccnc(Cl)c3)c(CO)s2)cc1 [SR-33527, 4-((4-(2-Chloropyridin-4-yl)-5-(hydroxymethyl)thiazol-2-yl)amino)benzenesulfonic acid]",Stabilty in human microsomes ≥ 15 minutes,[1],yes
same,EC50,[2],160 nM
"CS(=O)(=O)c1ccc(Nc2nc(-c3ccc(S(C)(=O)=O)cc3)cs2)cc1 [SR-35730, N,4-bis(4-(methylsulfonyl)phenyl)thiazol-2-amine]",Stabilty in human microsomes ≥ 15 minutes,[1],yes
same,EC50,[2],4 nM
"COc1cccc(-c2csc(Nc3ccc(S(C)(=O)=O)cc3)n2)c1 [SR-35788, 4-(3-Methoxyphenyl)-N-(4-(methylsulfonyl)phenyl)thiazol-2-amine]",Stabilty in human microsomes ≥ 15 minutes,[1],yes
same,EC50,[2],170 nM
"Cc1cc(-c2csc(Nc3ccc(S(C)(=O)=O)c(Cl)c3)n2)ccn1 [SR-33127, N-(3-chloro-4-(methylsulfonyl)phenyl)-4-(2-methylpyridin-4-yl)thiazol-2-amine]",Stabilty in human microsomes ≥ 15 minutes,[1],yes
same,EC50,[2],25 nM
"CNS(=O)(=O)c1ccc(-c2csc(Nc3ccc(S(C)(=O)=O)cc3)n2)cc1 [SR-34964, N-methyl-4-(2-((4-(methylsulfonyl)phenyl)amino)thiazol-4-yl)benzenesulfonamide]",Stabilty in human microsomes ≥ 15 minutes,[1],yes
same,EC50,[2],105 nM
"CS(=O)(=O)c1ccc(Nc2nc(-c3ccncc3)cs2)cc1 [SR-33788, N-(4-(methylsulfonyl)phenyl)-4-(pyridin-4-yl)thiazol-2-amine]",Stabilty in human microsomes ≥ 15 minutes,[1],yes
same,EC50,[2],80 nM
"CS(=O)(=O)c1ccc(Nc2nc(-c3ccnc(Cl)c3)c(CO)s2)cc1Cl [SR-33529, (2-((3-Chloro-4-(methylsulfonyl)phenyl)amino)-4-(2-chloropyridin-4-yl)thiazol-5-yl)methanol]",Stabilty in human microsomes ≥ 15 minutes,[1],yes
same,EC50,[2],80 nM
"COc1cc(-c2csc(Nc3ccc(S(C)(=O)=O)c(Cl)c3)n2)cc(OC)n1 [SR-33787, N-(3-chloro-4-(methylsulfonyl)phenyl)-4-(2,6-dimethoxypyridin-4-yl)thiazol-2-amine]",Stabilty in human microsomes ≥ 15 minutes,[1],yes
same,EC50,[2],80 nM
"Cc1cc(-c2csc(Nc3ccc(S(N)(=O)=O)cc3)n2)ccn1 [SR-33124, 4-((4-(2-Methylpyridin-4-yl)thiazol-2-yl)amino)benzenesulfonamide]",Stabilty in human microsomes ≥ 15 minutes,[1],yes
same,EC50,[2],30 nM
